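Each compound was tested at five concentrations against cells in 96-well plates for 48 hours. GI50 marks 50% less growth.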 Active and inactive are the calls of the source. No stated cut-off is given here; in the data, active = GI50 up to about 1.1 µM and inactive = higher.
Assays:
Experiment in all cases: NCI-60 cell line screen, 48 h
[1] = tested on: 786-0
[2] = tested on: A498
[3] = tested on: A549
[4] = tested on: ACHN
[5] = tested on: CCRF-CEM
[6] = tested on: COLO 205
[7] = tested on: DLD-1
[8] = tested on: DMS-114
[9] = tested on: EKVX
[10] = tested on: HCC 2998
[11] = tested on: HCT-116
[12] = tested on: HCT-15
[13] = tested on: HL-60
[14] = tested on: HOP-62
[15] = tested on: HOP-92
[16] = tested on: HT-29
[17] = tested on: IGROV-1
[18] = tested on: K562
[19] = tested on: KM-20L2
[20] = tested on: KM12
[21] = tested on: LOX IMVI
[22] = tested on: LXFL 529
[23] = tested on: M14
[24] = tested on: M19-MEL
[25] = tested on: MOLT-4
[26] = tested on: Malme-3M
[27] = tested on: NCI-H226
[28] = tested on: NCI-H23
[29] = tested on: NCI-H460
[30] = tested on: OVCAR-3
[31] = tested on: OVCAR-5
[32] = tested on: OVCAR-8
[33] = tested on: RPMI-8226
[34] = tested on: RXF 393
[35] = tested on: SF-268
[36] = tested on: SF-295
[37] = tested on: SF-539
[38] = tested on: SK-MEL-28
[39] = tested on: SK-MEL-2
[40] = tested on: SK-MEL-5
[41] = tested on: SK-OV-3
[42] = tested on: SNB-19
[43] = tested on: SNB-75
[44] = tested on: SNB-78
[45] = tested on: SW-620
[46] = tested on: TK-10
[47] = tested on: U-251
[48] = tested on: UACC-257
[49] = tested on: UACC-62
[50] = tested on: UO-31
[51] = tested on: CAKI-1
[52] = tested on: DMS-273
[53] = tested on: NCI-H522
[54] = tested on: OVCAR-4
[55] = tested on: SN12C
[56] = tested on: SR
[57] = tested on: MCF7
[58] = tested on: XF498

Measured: GI50

O=C(O)/C(=C/c1c(O)ccc2ccccc12)c1csc(-c2nc(/C(=C\c3c(O)ccc4ccccc34)C(=O)O)cs2)n1
14.4 µM: [12]
inactive: [1] 13.5 µM | [2] 20.7 µM | [3] 23.3 µM | [4] 4.83 µM | [5] 10.7 µM | [6] 16.4 µM | [7] 12 µM | [8] 10 µM | [9] 41.2 µM | [10] 17.4 µM | [11] 10.6 µM | [13] 8.45 µM | [14] 10 µM | [15] 1.86 µM | [16] 22.2 µM | [17] 11.1 µM | [18] 15.8 µM | [19] 19.4 µM | [20] 19.8 µM | [21] 19.8 µM | [22] 13.6 µM | [23] 11.7 µM | [24] 6.17 µM | [25] 13.4 µM | [26] 1.61 µM | [27] 2.49 µM | [28] 9.55 µM | [29] 19 µM | [30] 13.3 µM | [31] 17.5 µM | [32] 22.2 µM | [33] 9.38 µM | [34] 3.21 µM | [35] 10 µM | [36] 11.2 µM | [37] 6.17 µM | [38] 14.4 µM | [39] 2.33 µM | [40] 19.4 µM | [41] 12.3 µM | [42] 13.5 µM | [43] 11 µM | [44] 13.6 µM | [45] 24 µM | [46] 29 µM | [47] 14 µM | [48] 14.9 µM | [49] 10.4 µM | [50] 1.53 µM

O=c1c2ccccc2oc2ccccc12.Oc1cccc2cccnc12
inactive: [1] 1.66 µM | [2] 16.8 µM | [3] 2.63 µM | [4] 3.12 µM | [51] 3.9 µM | [6] 3.05 µM | [7] 1.76 µM | [8] 1.63 µM | [52] 1.94 µM | [9] 3.44 µM | [10] 1.88 µM | [11] 2.56 µM | [14] 7.43 µM | [17] 3.73 µM | [18] 4.99 µM | [20] 5.3 µM | [21] 1.49 µM | [22] 1.56 µM | [23] 3.11 µM | [26] 1.75 µM | [53] 12.9 µM | [30] 5.53 µM | [54] 5.89 µM | [32] 2.36 µM | [33] 5.41 µM | [35] 2.75 µM | [36] 2.23 µM | [37] 2.36 µM | [40] 1.95 µM | [55] 2.22 µM | [42] 3.36 µM | [43] 2.29 µM | [56] 2.73 µM | [45] 1.77 µM | [48] 2.73 µM | [49] 3.76 µM | [50] 2.31 µM
active: [5] 0.815 µM | [13] 0.67 µM | [25] 0.607 µM | [29] 0.966 µM | [41] < 0.01 µM

C=CCC1OC(C)(C)Oc2ccc(OCOCCOC)cc21 (stereo not given)
> 100 µM: [12]
inactive: [1] > 100 µM | [2] > 100 µM | [3] > 100 µM | [4] > 100 µM | [51] > 100 µM | [8] > 100 µM | [9] > 100 µM | [10] > 100 µM | [11] > 100 µM | [14] > 100 µM | [15] > 100 µM | [16] > 100 µM | [17] > 100 µM | [18] > 100 µM | [20] > 100 µM | [21] > 100 µM | [22] > 100 µM | [23] > 100 µM | [25] > 100 µM | [26] > 100 µM | [27] > 10 µM | [28] > 100 µM | [29] > 100 µM | [30] > 100 µM | [54] > 100 µM | [31] > 100 µM | [32] > 100 µM | [34] > 100 µM | [35] > 100 µM | [36] > 100 µM | [37] > 100 µM | [38] > 100 µM | [39] > 100 µM | [40] > 100 µM | [41] > 100 µM | [55] > 100 µM | [42] > 100 µM | [43] > 100 µM | [45] > 100 µM | [46] > 100 µM | [47] > 100 µM | [48] > 100 µM | [49] > 100 µM | [50] > 100 µM

CC1[C@@H]2CC=C3[C@H]4CCC5Cc6nc7c(nc6C[C@@]5(C)C4(O)CC(=O)[C@]32CO[C@]12OC(C)(C)CC2O)CC1CC[C@@H]2C3=C[C@H]4O[C@@]5(O[C@@](C)(CO)C[C@@H]5O)C(C)[C@@]4(O)[C@]3(C)[C@@H](O)CC2[C@]1(C)C7 (stereo not given in full)
active: [2] 0.000342 µM | [8] 0.00011 µM | [52] < 0.0001 µM | [10] 0.0748 µM | [13] < 0.0001 µM | [57] 0.00194 µM | [33] < 0.0001 µM | [34] < 0.0001 µM | [36] < 0.0001 µM | [37] < 0.0001 µM | [43] < 0.0001 µM | [46] 0.0204 µM | [58] < 0.0001 µM

From ChEMBL document CHEMBL1201862, “PubChem BioAssay data set” (2004)
